Measurements published in US7402559B2, “Composition and method of treatment for urogenital conditions” (MSH Pharma, Incorporated, priority 1999, dated 2008).
Bridge positions count the residues as written; N and C are the ends. Ends that are not written are not given here. I, II: the chains in the order shown.

What was measured:
C. krusei = assay: Candida CFU, CKPV dimer versus KPV: C. krusei; assay type: cell-based; conditions: FIG. 18; same molarity (10^−4 M)
Procedure: (§1) C. albicans, C. glabrata. and C. krusei (clinical isolates) were obtained from the collection of the laboratory of Microbiology, Ospedale Maggiore di Milano. Six different isolates for each yeast strain were used. Candida Sp. cells were maintained on Sabouraud's agar slants and periodically transferred to Sabouraud's agar plates and incubated for 48 h at 28° C. To prepare stationary growth phase yeast, a colony was taken from the agar plates and transferred into 5 ml Sabouraud-dextrose broth and incubated for 48 h at 32° C. Cells were centrifuged at 1,000× g for 10 minutes and the pellet was washed twice with distilled water. Cells were counted and suspended in distilled water to obtain 10^7 yeast cells/ml. Viability, determined by the exclusion of 0.01% methylene blue, remained >98%.
(§2) Control tubes received 100 μl of distilled water. All the tests were run in triplicate. After 2 h incubation at 37° C., yeast suspension from each vial was diluted with distilled water to obtain approximately 100 organisms/ml. One milliliter aliquots from each tube were dispensed on blood agar plates and incubated for 48 h at 37° C. to count CFUs. Organism viability was estimated from the number of CFUs in each plate. Only experiments in which CFUs in control plates were between 80 and 120 with a variability in counts less than 10% were used to evaluate effects of the peptides. […]

C. albicans [1] = assay: C. albicans colony formation (CFU viability); assay type: cell-based, Candida albicans; conditions: FIG. 3; 10^−12 to 10^−4 M; p<0.01 vs. control
Procedure: Clinical isolates of C. albicans were obtained from the collection of the Department of Microbiology, Ospedale Maggiore di Milano. Cultures of C. albicans were maintained on Sabouraud's agar slants and periodically transferred to Sabouraud's agar plates and incubated for 48 hours at 28° C. To prepare stationary growth-phase yeast, a colony was taken from the agar plate, transferred into 30 ml of Sabouraud-dextrose broth, and incubated for 72 hours at 32° C. Cells were centrifuged at 1000× g for ten minutes, and the pellet was washed twice with distilled water. Cells were counted and suspended in Hank's balanced salt solution (“HBSS”) to the desired concentration.
Cells were then washed in cold distilled water and diluted with HBSS to a concentration of 100 organisms/ml. One-milliliter aliquots were then dispensed on blood agar plates and incubated for 48 hours at 37° C. The organism's viability was estimated from the number of colonies formed.
[…] The effects of forskolin and ddAdo on the ability of C. albicans to form colonies were determined according to the procedures described in Example II.

S. aureus (ATCC 29213) = assay: S. aureus colony formation (viability); assay type: cell-based, Staphylococcus aureus; conditions: FIG. 1; significant at peptide concentrations of 10^−12 to 10^−4 M; 2 h at 37° C.
Procedure: Cultures of S. aureus (ATCC 29213) were obtained from the collection of the Department of Microbiology, Ospedale Maggiore di Milano. […] Cells were then washed in cold distilled water and diluted with HBSS to a concentration of 100 organisms/ml. One-milliliter aliquots were dispensed on blood agar plates and incubated for 24 hours at 37° C. Viability of the microorganisms was estimated from the colonies formed. In another set of experiments, 500 units of urokinase, a S. aureus growth enhancer, were also incubated with the bacteria (10^5/100 ml ) for four hours at 37° C. in a shaking water bath together with the peptides.

C. glabrata = assay: Candida CFU, CKPV dimer versus KPV: C. glabrata; assay type: cell-based; conditions: FIG. 19; same molarity (10^−4 M)
Procedure: as §1, §2

C. albicans [2] = assay: Candida CFU, CKPV dimer versus KPV: C. albicans; assay type: cell-based; conditions: FIG. 17; same molarity (10^−4 M)
Procedure: as §1, §2

Substance: VPKC-s-s-CKPV (disulfide I:1-II:1; not fully specified (N-terminus, C-terminus)) [CKPV dimer]
- effectiveness relative to KPV monomer, C. krusei (C. krusei): more than twice as effective
- ability of C albicans to form colonies (C. albicans [1]): greatly reduced
- S. aureus colony formation (S. aureus (ATCC 29213)): inhibited
- effectiveness relative to KPV monomer, C. glabrata (C. glabrata): more than twice as effective
- effectiveness relative to KPV monomer, C. albicans (C. albicans [2]): more than twice as effective
